Common to all, as to type: cell-based, human
The test system of assay [1] is IFNAR1 cell surface levels in MCF10A BRCC45 R137A cells. The assay can be described thus: MCF10A BRCC45 R137A IFNAR1 cell surface levels (FACS). The conditions noted are these: for IFNAR1 cell surface levels (Fig. 5g): BRCC45 KO + BRCC45 R137A, IFN + compound, No IFN about 100; for IFNAR1 cell surface levels: BRCC45 R137A cells, IFN 50 ng/ml, 5 μM, 90 min. Here is the method: To study the direct effect of BRISC DUB inhibitors, IFNAR1 surface levels were measured using flow cytometry (FACS) analysis. For this purpose, MCF10A WT and MCF10A BRCC45 KO cells expressing […]
BRCC45 WT or BRCC45 R137A were used. […]
minutes prior to the addition of 50 ng/mL of hIFN-Iα for various time points (45 minutes and 90 minutes).
After IFN treatment, cells were dissociated from plate using cell dissociation Buffer (ThermoFisher Scientific, #13150016) and were stained with LIVE/DEAD™ Fixable Violet Dead Cell Stain Kit, for 405 nm excitation (ThermoFisher Scientific, #L34963) for 30 minutes, as per the kit protocol. The cells were then washed using FACS buffer (DPBS, 1% BSA, 2 mM EDTA, 0.09% sodium azide) and transferred to 96-well round bottom plates. Resuspended cells were divided into three repeats for each sample, each was surface stained for 1 hour at 4 °C with: 1. Human IFN-alpha/beta R1 Antibody (R&D systems, #MAB245), 2. Mouse IgG1 Isotype Control (R&D systems, #MAB002), 3. FACS buffer (control cells).
Following incubation, cells were washed once with FACS buffer and were labelled for 30 minutes at 4 °C with either Biotin-SP-conjugated AffiniPure Donkey Anti-Mouse IgG (H+L) (Jackson Immunoresearch Laboratories) for samples 1 and 2 or with FACS buffer for sample 3. Cells were washed twice with FACS buffer and were labelled for 15 minutes at 4 °C with either R-Phycoerythrin-conjugated Streptavidin (Jackson Immunoresearch Laboratories) for samples 1 and 2 or with FACS buffer for sample 3. Cells were washed 3 times with FACS buffer and were analysed by FACS (MACSQuant, Miltenyi Biotec). For each sample from group 1 the Geo mean fluorescence intensity (MFI) of its isotype sample was reduced. IFNAR1 cell surface percentage was calculated by 100*(MFI

The test system of assay [2] is ISG expression in healthy control PBMCs. In words: Healthy PBMC type I IFN signaling gene expression array, IFNα2-stimulated. The conditions noted are these: IFNα2 20 ng/mL, 2 µM, 16 h. Here is the method: NEM). Cell lysates were clarified by centrifugation at 15,000 g for 10 minutes at 4 °C. Clarified lysates were pre-cleared with control uncoupled agarose beads (UM400, LifeSensors) for 30 minutes on a rotator at 4 °C followed by centrifugation at 5,000 g for 2 minutes. Equal amount of pre-cleared lysates from individual samples were incubated with 20 µL Agarose-TUBE beads (pre-equilibrated with 1X Tris-buffered saline (TBS)) overnight on a rotator at 4 °C. Beads were collected by centrifugation at 5,000 g for 2 minutes at RT followed by four stringent washes with 1X TBST (TBS, 0.1% Tween-20). TUBE-pulldown proteins were eluted by boiling Agarose-TUBE beads in 2X LDS sample buffer supplemented with […] DTT for 15 minutes. Eluted proteins were resolved on NuPAGE™ 4–12% Bis–Tris gel followed by Western blotting using anti-IFNAR1 antibody (ab124764, Abcam).
(§1) PBMCs in vitro experiments
(§2) Peripheral blood mononuclear cells (PBMCs) from healthy and SSc donors were separated using density gradient method (Leucosep™, Greiner Bio-One International) from EDTA anticoagulated peripheral blood; isolated cells were washed twice by PBS. PBMCs were then incubated in RPMI1640 […]
For healthy PBMCs, cells were stimulated with 20 ng/mL of IFN (+/- compounds or DMSO). […] Concentration of CXCL10 was determined according to a 4-parameter logistic regression standard curve. […]
For Type I IFN signalling analysis, the human IFN I RT2 Profiler PCR Array (Qiagen, PAMM-016ZE) was performed on available RNA from healthy (n=3) and SSc (n=9) donors. […] Relative expression for each gene was determined, firstly by ∆CT calculated using the geometric mean of 4 housekeeping genes (ACTB, GAPDH, HPRT1, RPLP0), followed by 2^(-∆CT), and expressed as fold change to control, according to manufacturer’s guidance. IFN2α-induced ISGs in healthy donors were determined using a Student’s t-test (two-tail distribution and equal variances) on the triplicate fold change in 2^(-ΔCT) values between […]
R Foundation for Statistical Computing). The IFN2α inducible genes determined in healthy donors […]

For assay [3], the system named is CXCL10 secretion in healthy PBMCs. The assay can be described thus: Healthy PBMC CXCL10 ELISA, IFNα2-stimulated. Here is the method:
as §1, §2
For healthy PBMCs, cells were stimulated with 20 ng/mL of IFN (+/- compounds or DMSO). For SSc PBMCs, cells were in basal conditions with no additional IFN stimulation. Cells were centrifuged at 300 g for 10 minutes. Supernatant was removed and subjected to R&D Systems DY266 Human CXCL10/IP-10 DuoSet ELISA (Biotechne) in duplicates, according to manufacturer’s guidance. Concentration of CXCL10 was determined according to a 4-parameter
A general note: An ELISA detects its analyte on a solid surface through an enzyme-linked reagent.

Molecules are shown by their SMILES. Several values for one entry are separate records, joined by “and”; a condition that tells them apart may be missing. Equal entries are not always repeated.

As to `Cn1cc(NC(=O)c2c(Cl)cccc2Cl)c(C(=O)NC2CCN(C(=O)c3c(Cl)cccc3Cl)CC2)n1` [AP-5-145], the “IFNAR1 cell surface levels (Fig. 5g)” value in assay [1] is 55.396 and 54.5623 and 54.7013. Also, the “IFN-induced ISG expression (in words)” value in assay [2] is listed as “no difference in ISG expression profile”. Moreover, the “CXCL10, healthy donor PBMCs (Fig. 6c)” value in assay [3] (Healthy donor HC1) is 89.7308; in assay [3] (Healthy donor HC2), 123.351; in assay [3] (Healthy donor HC3) it was 106.128.
Turning to `O=C(NC1C2CNCC21)c1nn(C(=O)c2c(Cl)cccc2Cl)cc1NC(=O)c1c(Cl)cccc1Cl` (centres unmarked) [FX-171-C], in assay [1], the “IFNAR1 cell surface levels (Fig. 5g)” value is 49.6989 and 47.3367 and 48.4484. In addition, in assay [1], the “IFNAR1 cell surface levels” value is reported as “not reduced”. Further, the “IFN-induced ISG expression (in words)” value in assay [2] is on record as “less reduction in ISG expression”. The results for the “CXCL10, healthy donor PBMCs (Fig. 6c)” value in assay [3] (Healthy donor HC1), in assay [3] (Healthy donor HC2) and in assay [3] (Healthy donor HC3) were 77.343, 68.1378 and 64.5563, respectively.
With `O=C(NC1CCNCC1)c1nn(C(=O)c2c(Cl)cccc2Cl)cc1NC(=O)c1c(Cl)cccc1Cl` [JMS-175-2], the “IFNAR1 cell surface levels (Fig. 5g)” value in assay [1] is 50.1158 and 49.56 and 49.1431. Further, in assay [1], the “IFNAR1 cell surface levels” value is “not reduced”. For the same compound, the “number of the 34 IFN-upregulated ISGs suppressed compared to AP-5-145” value in assay [2] was 13. Besides, the “CXCL10, healthy donor PBMCs (Fig. 6c)” value in assay [3] (Healthy donor HC1) was 63.2851; in assay [3] (Healthy donor HC2) it was 45.1027; in assay [3] (Healthy donor HC3), 43.5189.

Source of the values: article PMC7617869, “Molecular glues that inhibit deubiquitylase activity and inflammatory signaling” (Nature Structural & Molecular Biology, 2025).
